Experimental data from patent publication US8901276B2, “Peptide reagents and methods for detection of colon dysplasia” (The Regents of the University of Michigan, priority 2010, dated 2014).
Where no end group is shown, it is not given here. The star is where a group is joined. FITC = O=C1OC2(c3ccc(O)cc3Oc3cc(O)ccc32)c2ccc(NC(=S)*)cc21

Experiments:
[1] = tested on: colonic adenomas; assay: In vivo imaging with multi-spectral scanning fiber endoscope; set-up: species or system CPC; Apc mice; conditions: for binding to colonic dysplasia/adenomas on fluorescence images / Average T/B: 100 μM topical, 5 min; for Average T/B: Multi-Spectral Scanning Fiber Endoscopy Results, mean ± SD; for range of T/B ratios: dysplasia versus normal appearing adjacent colonic mucosa
Excerpt: A scanning fiber endoscope system was adapted for fluorescence detection in three channels (RGB) using excitation at 440 (NDHB510APA, Nichia, Tokyo, Japan), 532 (FTEC532-V10TA0, Blue Sky Research, Milpitas, Calif.) and 635 (FMXL635-017TA0B, Blue Sky Research) nm using an RGB coupler (OZ Optics, Ottawa, Canada). The three laser sources are delivered simultaneously into the scanning fiber, and focused to the same point on the illumination plane using a custom lens assembly, as shown in the schematic in FIG. 2A. The laser power coming out of the distal tip of the endoscope is <2 mW for each channel, a level consistent with a non-significant risk (NSR) determination by the U.S. Food and Drug Administration (FDA, 21 CFR 812) for future human clinical studies. The amplitude of the spiral scanner was reduced to achieve a divergence angle of 70 deg (max 100 deg) to minimize noise in the periphery of the image. Fluorescence is collected by a ring of 12 step-index plastic optical fibers (POF) with numerical aperture (N.A.) of 0.63 and outer diameter of 250 μm (Toray Industries Inc, Tokyo, Japan).
(§1) The CPC;Apc mice were first imaged with white light using a non-scanning endoscope (Karl Storz Veterinary Endoscopy, Goleta, Calif.) to assess for the presence of colonic adenomas that have a size between ˜0.5 to 4 mm in diameter. Any adenomas were rinsed of debris including stool and mucous, by delivering tap water through a 3 Fr instrument channel. Then, the fluorescent-labeled peptides were delivered topically at a concentration of 100 μM in 1×PBS in a volume of 1 mL to the distal 4 cm of the colon and rectum. The peptides were incubated for 5 minutes and then the unbound peptides were rinsed away with tap water 3 times. The colon was inspected for any residual peptide, and when clean, the colon was insufflated with air and imaged with the multi-spectral scanning fiber endoscope.
Videos collected during endoscopy were exported as avi video files and converted into sequential png images using Apple QuickTime. White light and fluorescence images for each adenoma were analyzed in NIH Image J. The white light image was utilized to draw a region of interest (ROI) around the adenoma or adjacent normal appearing colonic mucosa which was then superimposed onto the fluorescence image. The mean fluorescence intensities were calculated for each ROI, and a target/background (T/B) ratio was calculated for each colonic adenoma and compared to the surrounding normal appearing mucosa.

[2] = tested on: normal colonic mucosa; assay: In vivo imaging with multi-spectral scanning fiber endoscope, normal mucosa; set-up: species or system mice; conditions: mouse
Protocol: as §1

[3] = tested on: Hs738.St/Int. cells; assay: Flow cytometry of FITC-labeled peptides; format: cell-based, human; conditions: 10 μM, 60 min, 4° C.
Protocol: (§2) Preferential binding of FITC-Peptide 2 to target cells was validated using flow cytometry. HT29 and Hs738.St/Int. (˜2×10^5) cells were grown, detached, and blocked as described above. These cells were incubated with the FITC-Peptide 2 or -Control peptide 2 (10 μM) for 60 min at 4° C. with continuous agitation. The cells were then washed (3×) with cold PBST followed by immediate fixing for 10 min. with 4% paraformaldehyde. The cells were washed again (1×) with PBS and resuspended in 1 mL of PBS. Flow cytometry was performed using FACSDiVa (BD® LSRII, BD Biosciences, San Jose, Calif.) and analyzed using Flowjo analysis program (Tree Star Inc., Ashland, Oreg.).
(§3) Preferential binding of the candidate peptide labeled with 5-FITC to the target and control cells was also validated using flow cytometry. HT29 and Hs738.St/Int. (˜2×10^5) cells were grown, detached, and blocked, as described above. These cells were incubated with the 5-FITC labeled candidate or control peptide (10 μM) for 60 min at 4° C. with continuous agitation. The cells were then washed 3× with cold PBST followed by immediate fixation for 10 min with 4% paraformaldehyde. The cells were washed again with PBS and resuspended in 1 mL of PBS. Flow cytometry was performed using FACSDiVa (BD® LSRII, BD Biosciences, San Jose, Calif.) and analyzed using Flowjo analysis program (Tree Star Inc. Ashland, Oreg.).

[4] = tested on: HT29 cells; assay: Flow cytometry of FITC-labeled peptides; format: cell-based, human; conditions: 10 μM, 60 min, 4° C., FITC channel
Protocol: as §2, §3

[5] = tested on: human EMR specimens (normal mucosa, polypoid and non-polypoid dysplasia); assay: Stereomicroscopic validation on EMR specimens; conditions: 10 μmol/L, 5 min, mean±SEM
Excerpt: Binding of the candidate or control peptide to the dysplasia on freshly resected human specimens via endoscopic mucosal resection (EMR) was validated on fluorescence stereomicroscopy. Patients with previously diagnosed polypoid and non-polypoid dysplasia who were referred for EMR were recruited. Institutional review board approval was obtained from the VA Palo Alto Health Care System, and informed consent was acquired. After resection, the specimens were rinsed in PBS 3× to remove debris and mucous. An autofluorescence image was acquired before incubating with the peptide. Then, specimens were incubated with either the FITC-labeled candidate or control peptide at a concentration of 10 μmol/L for 5 min. The unbound peptide was rinsed off with PBS 3×. The mucosal surface of the specimen was oriented face up, and a dab of ink was applied to the upper border as a landmark to register the white light and fluorescence images with histology. A white light image was collected from the specimen with and without an overlying transparent grid that contains squares with dimensions of 1×1 mm^2. Fluorescence images were collected at 500 milliseconds per frame (with the overlying grid removed) using a stereomicroscope (Olympus SZX-16 equipped with Rolera camera; Olympus Corp, Tokyo, Japan) using 477 to 500 nm excitation and 500 to 630 nm emission. A correction to the fluorescence images was performed because the intensity at the center of the image is greater than that in the periphery due to differences in distance. A fluorescence image was collected from a solution of 10 μM FITC in a plate to provide a uniform target for calibration, allowing for quantitative analysis over the entire field of view. After the fluorescence intensities were corrected, lines along the length of the specimen spaced by 2-mm intervals in each image were identified using the grid from the white light image. The mean intensity from each 1×1 mm^2 interval along this length of tissue was calculated using Matlab and compared with histology. Histopathologic interpretation was performed by a gastrointestinal pathologist (HA) who classified the specimens stained with H&E as normal colonic mucosa, dysplasia, or adenocarcinoma. The histopathologic evaluation of the EMR specimens was conducted at VA Palo Alto Health Care System (AM) and classified as either dysplasia or normal mucosa.

[6] = tested on: HT29 cells; assay: Fluorescence microscopy of FITC-labeled peptides; format: cell-based, human; conditions: 10 μM, 15 min, 4° C.
Protocol: (§4) Preferential binding of the FITC-Peptide 2 and FITC-Control peptide 2 to target and non-target cells was also validated via fluorescence microscopy. HT29 and Hs738.St/Int. cells were grown in 22 mm2 cover slips with ˜80% confluence. Blocking of non-specific binding was performed by adding PBS/0.5% BSA for 30 min. The cells were then incubated with 10 μM of FITC-Peptide 2 or FITC-Control peptide 2 either at 4 or 37° C. for 15 min followed by 1 μg/mL Hoechst dye (Sigma Aldrich, St. Louis, Mo.) along with the peptide. The cells were washed with PBS for 3 times and fixed with 4% paraformaldehyde at room temperature for 10 min. After fixation, the cells were washed again with PBS (1×) and mounted with ProLong® Gold reagent (Invitrogen, Carlsbad, Calif.) and the fluorescence images were acquired with Leica Confocal system. (Leica Microsystems GMBH, Wetzlar, 35578 Germany)
In addition, the ability of the FITC-Peptide 2 peptide to internalize within the HT29 cells was tested. HT29 cells were incubated for 15 min. at either 4° C. or 37° C. in the presence of 10 μM FITC-Peptide 2.
(§5) Preferential binding of the FITC-labeled candidate and control peptides to the target and non-target cells was further validated via fluorescence microscopy. HT29 and Hs738.St/Int. cells were grown on cover slips to ˜80% confluence. Blocking of non-specific binding was performed by adding PBS/0.5% BSA for 30 min. The cells were then incubated with 10 μM of 5-FITC-labeled candidate or control peptide at either 4 or 37° C. for 15 min followed by staining with 1 μg/mL Hoechst dye (Sigma Aldrich, St. Louis, Mo.) along with the peptide. The cells were washed 3× with PBS and fixed with 4% paraformaldehyde at RT for 10 min. After fixation, the cells were washed again with PBS and mounted with ProLong Gold reagent (Invitrogen, Carlsbad, Calif.) and fluorescence images were collected with confocal microscopy (Leica TCS SP5 Microsystems, Bannockburn, Ill.).

[7] = tested on: human colon surgical specimens (normal mucosa, dysplastic adenomas, carcinoma); assay: Binding of synthetic peptides to human surgical specimens of colon cancer (Example 9); conditions: 10 μM, 15 min, RT
Protocol: Fresh frozen sections from human surgical specimens were cryosectioned with […] and used to localize peptide binding. The sectioned tissues were air dried and washed with PBS 1×. Sections were incubated with FITC labeled peptides (10 μM) for 15 min at RT. The sections were washed three times each for 1 min in PBS and fixed with 4% paraformaldehyde for 10 min. After fixing, the sections were washed again (1×) and mounted with ProLong® Gold reagent with DAPI (Invitrogen, Carlsbad, Calif.). The sections were imaged under a confocal microscope ([…]). All surgical specimens were obtained from the tissue procurement core of University of Michigan with approval from the Institutional Review Board (IRB).

[8] = tested on: Hs738.St/Int. cells; assay: Fluorescence microscopy of FITC-labeled peptides; format: cell-based, human; conditions: 10 μM, 15 min
Protocol: as §4, §5

[9] = tested on: HT29 cells; assay: Competitive inhibition assay (bound phage counts); format: cell-based, human; conditions: up to 200 μM unlabeled peptide
Protocol: Bound phage counts were performed to observe the competitive inhibition effect of the synthetic candidate heptapeptide with its representative phage counterpart in triplicate. HT29 cells (5×10^6) were detached with enzyme free cell dissociation buffer and blocked with 1% BSA containing PBS for 30 min at 4° C. The cells were washed and incubated with phage (2×10^11) for 15 min. Then, the cells were washed with PBS and immediately incubated with different concentrations of unlabeled peptide ranging from 10 to 200 μM for an additional 15 min. Cells were washed 3× and the bound phages were recovered as described above in bound phage counts. The bound phages were then tittered and counted, and the relative inhibition rate was calculated. The inhibition activity of no-insert WT phage by synthetic candidate peptide and phage with unrelated synthetic control peptide were used as negative controls.

[10] = tested on: human colonic mucosa sections (normal, dysplasia, adenocarcinoma); assay: Peptide immunohistochemistry on frozen sections (Example 11); conditions: 10 μM, 15 min, RT
Protocol: All specimens were obtained with approval from the University of Michigan Institutional Review Board (IRB). Freshly resected specimens of human colonic mucosa were frozen in OCT and sectioned with 10 μm thickness. The sections were then air dried, washed with PBS, and incubated with the FITC-labeled peptides at a concentration of 10 μM for 15 min at RT. The sections were washed 3× for 1 min in PBS and fixed with 4% paraformaldehyde for 10 min. After fixation, the sections were washed again and mounted with ProLong Gold reagent with DAPI (Invitrogen, Carlsbad, Calif.). The sections were imaged under a confocal microscope (Leica TCS SP5 Microsystems, Bannockburn, Ill.). Adjacent sections were sent for routine histology. The intensity for each image was calculated using Matlab (Mathworks, Natick, Mass.).

Row | Substance | binding to colonic dysplasia/adenomas on fluorescence images [1] | Average T/B [1] | range of T/B ratios [1] | signal on normal colonic mucosa [2] | binding to Hs738.St/Int. cells on flow cytometry [3] | total HT29 cell population bound [4] [%] | total HT29 cell population bound ([4]; listed as control peptide) [%] | fluorescence intensity on stereomicroscopy ([5]; non-polypoid dysplasia) [AU] | fluorescence intensity on stereomicroscopy ([5]; normal mucosa) [AU] | fluorescence intensity on stereomicroscopy ([5]; polypoid dysplasia) [AU] | binding to the surface of HT29 cells [6] | binding to specimens classified from normal to carcinoma [7] | binding to Hs738.St/Int. cells on microscopy [8] | inhibition of KCCFPAQ phage binding to HT29 cells [9] | staining of any specimen (normal, dysplasia, adenocarcinoma) [10]
1 | AKPGYLS-TAMRA: AKPGYLS labeled with 5-Carboxytetramethylrhodamine (TAMRA) (also: TAMRA label, site not given here) | clearly displayed specific binding | 1.67±0.12 | 1.50-1.78 | minimal signal | – | – | – | – | – | – | – | – | – | – | –
2 | GGGAGGGAGGGK (FITC)-NH2 (GGGAGGGAGGGK(FITC)-NH2; N-terminus assumed; SMILES C[C@H](NC(=O)CNC(=O)CNC(=O)CN)C(=O)NCC(=O)NCC(=O)NCC(=O)N[C@@H](C)C(=O)NCC(=O)NCC(=O)NCC(=O)N[C@@H](CCCCNC(=S)Nc1ccc2c(c1)C(=O)OC21c2ccc(O)cc2Oc2cc(O)ccc21)C(N)=O) [FITC-Control peptide 2, glycine/alanine control peptide, reference compound] | – | – | – | – | bound minimally | 18.6 | 2.3 | 21.8±4.1 | 16.5±2.5 | 14.0±3.0 | did not bind | not able to bind with any of the specimens | did not bind | No inhibition | did not stain any of the specimens
3 | KCCFPAQ-DEAC: KCCFPAQ labeled with 7-Diethylaminocoumarin-3-carboxylic acid (DEAC) (cysteine pairing not given here; also: DEAC label, place not given here) | clearly displayed specific binding | 1.71±0.19 | 1.50-2.06 | minimal signal | – | – | – | – | – | – | – | – | – | – | –
